Test results from patent publication US20070123473A1, “Glycosylated steroid derivatives with anti-migratory activity” (priority 2003, published 2007).

Experiments:
P388 lymphoma = experiment: Survival of P388 lymphoma bearing mice (T/C index); type: in vivo, mouse; details: 40 mg/kg subcutaneously, T/C of 130% or more = significant prolongation of survival
Description: The compounds UBS3328 and UBS3501 were evaluated on the aggressive P388 lymphoma cancer model. When leukemic P388 cells of lymphoblastic origin (Pihl A. UICC Study Group on chemosensitivity testing of human tumors. Problems-applications-future prospects. Int J Cancer. 1986 Jan. 15; 37(1):1-5) are grafted subcutaneously, they develop as very biologically aggressive anaplastic lymphomas markedly metastasizing first into the liver, then in the lungs and occasionally in kidneys. The mice suffering from P388 lymphomas usually die about 2 weeks after the cell injection. The P388 lymphoma was thus used as a model representative of a clinically terminal state of cancer.
The model was performed with 5 mice per group and the compounds UBS3328 and UBS3501 were injected subcutaneously at 40 mg/kg for 4 days, two times per day, for the two first weeks post graft followed by one administration everyday, one times per day for the third week post graft.
The effect of the compounds UBS3328 and UBS3501 on the survival of the P388 cancer bearing mice is evaluated following the analysis of the T/C index. T/C index is calculated by dividing the median day of death in a treated group T by the median day of death in the control group C. T/C values of 130% or more (i.e. a prolongation of mice survival of 30% or more) indicate a significant prolongation of survival.

A549 (lung cancer) = experiment: Cell migration of cancer cells (phase-contrast videomicroscopy), A549; type: cell-based, human; details: 25% of most motile cells
Description: (§1) Cells of different types of cancer, i.e. U-373 MG (Glioma), Hs578T (breast cancer), PC-3 (prostate cancer) and A549 (lung cancer) were seeded on culture flask 48 hours before the migration experiment. On the test day, cells were treated with or without compounds UBS3270, UBS3285, UBS3327, UBS3328, UBS3501, UBS3585, UBS3597, UBS3976, UBS4066, UBS4095, UBS4104, UBS4109, UBS4209 and UBS4373 in closed Falcon dishes containing a buffered medium at a controlled temperature (37.0±0.1° C.) for 12 or 24 hours. The compounds were administered at 4 concentrations (10^−7 M to 10^−10 M). Migration of the cells was observed by means of a CCD-camera mounted on a phase-contrast microscope. A statistical analyse of the migration, with the non-parametric Mann-Whitney test, was established for 25%-50% of the most motile cells and for the entire cell population for UBS3270, UBS3285, UBS3327, UBS3328, UBS3501, UBS3585, UBS3597, UBS3976, UBS4066, UBS4095, UBS4104, UBS4109, UBS4209 and UBS4373 compounds. The table C below illustrates the anti-migratory effect of the compound according to the invention.

U-373 MG (Glioma) = experiment: Cell migration of cancer cells (phase-contrast videomicroscopy), U-373 MG; type: cell-based, human
Description: as §1

Hs578T (breast cancer) = experiment: Cell migration of cancer cells (phase-contrast videomicroscopy), Hs578T; type: cell-based, human
Description: as §1

PC-3 (prostate cancer) = experiment: Cell migration of cancer cells (phase-contrast videomicroscopy), PC-3; type: cell-based, human
Description: as §1

[1] = 24 hours, 25% of most motile cells, 10^−9 M
[2] = 12 hours, entire cell population, 10^−9 M

## COc1ccc(OC)c(C2CC3C4CC=C5CC(OC6O[C@H](CO[C@H]7O[C@H](CO)[C@@H](O)[C@H](O)[C@H]7O)[C@@H](O)[C@H](O)[C@H]6O)CCC5(C)C4CCC3(C)C2C(C)=O)c1 (some centres unmarked) [UBS3328]
P388 lymphoma
  T/C index (median day of death treated / control): 135%
A549 (lung cancer); 24 hours, 10^−7 M
  Max. effects (anti-migratory effect): −40%/p < 0.001
U-373 MG (Glioma); 12 hours, entire cell population, 10^−10 M
  Max. effects (anti-migratory effect): −27%/p < 0.001

## COc1ccc(OC)c(C2CC3C4CC=C5CC(OC6O[C@@H](C)[C@@H](O)[C@@H](O)[C@@H]6O)CCC5(C)C4CCC3(C)C2C(C)OC2O[C@@H](C)[C@@H](O)[C@@H](O)[C@@H]2O)c1 (some centres unmarked) [UBS4066]
Hs578T (breast cancer); 12 hours, 25% of most motile cells, 10^−9 M
  Max. effects (anti-migratory effect): −29%/p < 0.001
PC-3 (prostate cancer); [1]
  Max. effects (anti-migratory effect): −45%/p < 0.001

## COc1ccc(OC)c(C2CC3C4CC=C5CC(OC6O[C@H](CO)[C@@H](O[C@H]7O[C@H](CO)[C@@H](O)[C@H](O)[C@H]7O)[C@H](O)[C@H]6O)CCC5(C)C4CCC3(C)C2C(C)=O)c1 (some centres unmarked) [UBS4095]
U-373 MG (Glioma); 24 hours, entire cell population, 10^−9 M
  Max. effects (anti-migratory effect): −27%/p < 0.001

## COc1ccc(OC)c(C2CC3C4CC=C5CC(OC6O[C@H](CO[C@H]7O[C@H](CO)[C@@H](O)[C@H](O)[C@H]7O)[C@@H](O)[C@H](O)[C@H]6O)CCC5(C)C4CCC3(C)C2C(C)OC2O[C@H](CO[C@H]3O[C@H](CO)[C@@H](O)[C@H](O)[C@H]3O)[C@@H](O)[C@H](O)[C@H]2O)c1 (some centres unmarked) [UBS4373]
U-373 MG (Glioma); [2]
  Max. effects (anti-migratory effect): −24%/p < 0.001

## COc1ccc(OC)c(C2CC3C4CC=C5CC(OC6O[C@H](CO)[C@@H](O)[C@H](O)[C@@H]6O)CCC5(C)C4CCC3(C)C2C(C)=O)c1 (some centres unmarked) [UBS3270]
Hs578T (breast cancer); 24 hours, 50% of most motile cells, 10^−7 M
  Max. effects (anti-migratory effect): −27%/p < 0.001

## COc1ccc(OC)c(C2CC3C4CC=C5CC(OC6O[C@H](CO)[C@@H](O[C@@H]7O[C@H](CO)[C@@H](O)[C@H](O)[C@H]7O)[C@H](O)[C@H]6O)CCC5(C)C4CCC3(C)C2C(C)OC2O[C@H](CO)[C@@H](O[C@@H]3O[C@H](CO)[C@@H](O)[C@H](O)[C@H]3O)[C@H](O)[C@H]2O)c1 (some centres unmarked) [UBS4109]
PC-3 (prostate cancer); [2]
  Max. effects (anti-migratory effect): −34%/p < 0.001

## COc1ccc(OC)c(C2CC3C4CC=C5CC(OC6O[C@@H](C)[C@@H](O)[C@@H](O)[C@@H]6O)CCC5(C)C4CCC3(C)C2C(C)=O)c1 (some centres unmarked) [UBS3501]
P388 lymphoma
  T/C index (median day of death treated / control): 141%
U-373 MG (Glioma); 24 hours, 25% of most motile cells, 10^−8 M
  Max. effects (anti-migratory effect): −38%/p = 0.01
PC-3 (prostate cancer); 12 hours, 25% of most motile cells, 10^−7 M
  Max. effects (anti-migratory effect): −23%/p < 0.001

## COc1ccc(OC)c(C2CC3C4CC=C5CC(OC6O[C@H](CO)[C@@H](O[C@@H]7O[C@H](CO)[C@H](O)[C@H](O)[C@H]7O)[C@H](O)[C@H]6O)CCC5(C)C4CCC3(C)C2C(C)OC2O[C@H](CO)[C@@H](O[C@@H]3O[C@H](CO)[C@H](O)[C@H](O)[C@H]3O)[C@H](O)[C@H]2O)c1 (some centres unmarked) [UBS4209]
A549 (lung cancer); 12 hours, 10^−8 M
  Max. effects (anti-migratory effect): −26%/p < 0.001
Hs578T (breast cancer); 24 hours, 25% of most motile cells, 10^−7 M
  Max. effects (anti-migratory effect): −26%/p < 0.001

## COc1ccc(OC)c(C2CC3C4CC=C5CC(OC6O[C@H](CO)[C@H](O)[C@H](O)[C@H]6NC(C)=O)CCC5(C)C4CCC3(C)C2C(C)=O)c1 (some centres unmarked) [UBS3597]
PC-3 (prostate cancer); [1]
  Max. effects (anti-migratory effect): −31%/p < 0.001

## COc1ccc(OC)c(C2CC3C4CC=C5CC(O[C@@H]6O[C@H](CO)[C@@H](O)[C@H](O)[C@H]6NC(C)=O)CCC5(C)C4CCC3(C)C2C(C)=O)c1 (some centres unmarked) [UBS4104]
A549 (lung cancer); 24 hours, 10^−10 M
  Max. effects (anti-migratory effect): −46%/p < 0.001
U-373 MG (Glioma); 12 hours, 50% of most motile cells, 10^−10 M
  Max. effects (anti-migratory effect): −23%/p < 0.001

## COc1ccc(OC)c(C2CC3C4CC=C5CC(OC6O[C@H](CO)[C@@H](O[C@@H]7O[C@H](CO)[C@H](O)[C@H](O)[C@H]7O)[C@H](O)[C@H]6O)CCC5(C)C4CCC3(C)C2C(C)=O)c1 (some centres unmarked) [UBS3976]
U-373 MG (Glioma); 24 hours, 25% of most motile cells, 10^−10 M
  Max. effects (anti-migratory effect): −46%/p < 0.001
PC-3 (prostate cancer); 12 hours, 25% of most motile cells, 10^−8 M
  Max. effects (anti-migratory effect): −51%/p < 0.001

## COc1ccc(OC)c(C2CC3C4CC=C5CC(OC6O[C@H](CO)[C@@H](O)[C@H](O)[C@H]6NC(C)=O)CCC5(C)C4CCC3(C)C2C(C)=O)c1 (some centres unmarked) [UBS3585]
Hs578T (breast cancer); 24 hours, entire cell population, 10^−7 M
  Max. effects (anti-migratory effect): −27%/p < 0.001
